# Data reported in patent US20200131156A1, “ARYLSULFONYLPYROLECARBOXAMIDE DERIVATIVES AS Kv3 POTASSIUM CHANNEL ACTIVATORS” (H. Lundbeck A/S, priority 2018, published 2020).
# Target: T1, hKv3.1b (Homo sapiens, UniProt P48547)
# T1 construct: expressed in transfected cells
# T1 sequence (P48547 1-585 isoform P48547-2): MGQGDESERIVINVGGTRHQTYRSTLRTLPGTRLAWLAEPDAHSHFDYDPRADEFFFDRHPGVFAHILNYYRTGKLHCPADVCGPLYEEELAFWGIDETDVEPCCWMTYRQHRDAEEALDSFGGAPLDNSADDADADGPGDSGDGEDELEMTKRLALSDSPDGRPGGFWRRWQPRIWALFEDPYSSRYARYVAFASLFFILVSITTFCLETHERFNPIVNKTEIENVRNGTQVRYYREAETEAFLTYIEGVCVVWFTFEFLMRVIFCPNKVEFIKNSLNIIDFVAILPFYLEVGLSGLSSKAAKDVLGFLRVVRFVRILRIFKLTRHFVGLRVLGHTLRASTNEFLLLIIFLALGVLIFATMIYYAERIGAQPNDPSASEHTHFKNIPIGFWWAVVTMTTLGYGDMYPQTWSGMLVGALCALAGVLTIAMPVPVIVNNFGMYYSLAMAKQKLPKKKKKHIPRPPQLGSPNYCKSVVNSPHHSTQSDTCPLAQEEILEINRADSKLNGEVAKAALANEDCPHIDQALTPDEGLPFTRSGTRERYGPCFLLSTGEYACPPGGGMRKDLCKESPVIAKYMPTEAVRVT
# Assay: Automated patch clamp (QPatch-16x) on HEK-293 cells stably expressing hKv3.1b
# Assay type: cell-based
# Conditions: for ECdelta5 mV: concentration needed to shift the activation threshold 5 mV; for Threshold Shift: maximum absolute hyperpolarizing shift of activation threshold at tested concentrations 0.37-30 μM
# Procedure: HEK-293 cells stably expressing hKv3.1b were used for the experiments. Cells were cultured in DMEM medium supplemented with 10% Fetal Bovine Serum, 100 ug/mL Geneticidin and 100 u/mL Penicillin/Streptomycin (all from Gibco). Cells were grown to 80-90% confluency at 37° C. and 5% CO2. On the day of the experiment the cells were detached from the tissue culture flasks by Detachin, resuspended in serum free medium containing 25 mM HEPES and transferred to the cell hotel of the QPatch. The cells were used for experiments 0-5 hours after detachment.
# Patch-clamp recordings were performed using the automated recording system QPatch-16x (Sophion Bioscience, Denmark). Cells were centrifuged, SFM removed and the cells were resuspended in extracellular buffer containing (in mM): 145 NaCl, 4 KCl, 1 MgCl2, 2 CaCl2, 10 HEPES and 10 glucose (added fresh on the day of experiment); pH 7.4 adjusted with NaOH, 305 mOsm adjusted with sucrose.
# Single cell whole-cell recordings were carried out using an intracellular solution containing (in mM): 120 KCl, 32.25/10 KOH/EGTA, 5.374 CaCl2, 1.75 MgCl2, 10 HEPES, 4 Na2ATP (added fresh on the day), pH 7.2 adjusted with KOH, […] adjusted with sucrose. Cell membrane potentials were held at −80 mV and currents were evoked by voltage steps (200 ms duration) from −70 mV to +10 mV (in 10 mV increments). Vehicle (0.33% DMSO) or increasing concentration of compound (I) were applied and the voltage protocol was run 3 times (resulting in 3 min cpd incubation time). Five increasing concentrations of compound (I) were applied to each cell.
# Leak subtraction protocol was applied at −33% of the sweep amplitude, and serial resistance values were constantly monitored.
# Any cell where serial resistance exceeded 25 MOhm, membrane resistance less than 200 MOhm or current size at −10 mV less than 200 pA was eliminated from the subsequent analysis.
# Data analysis was performed using Sophion's QPatch assay software in combination with Microsoft Excel™ (Redmond, Wash., USA). Current voltage relationships were plotted from the peak current at the individual voltage steps normalized to the vehicle addition at 10 mV. The voltage threshold for channel activation was defined as 5% activation of the peak current at 10 mV in presence of vehicle. The activity of the compounds was described as the ability to shift this current voltage relationship to more hyperpolarized potentials and is given as the maximum absolute shift possible at the tested concentrations (0.37, 1.11, 3.33, 10, 30 μM). Concentration response curves were plotted from the threshold shift at the individual concentrations and were fitted excel fit model 205 sigmoidal dose-response model (fit=A+((B−A)/1+((C/x)^D)))), where A is the minimum value, B the maximum value, C the EC50 value and D the slope of the curve. The concentration needed to shift the threshold 5 mV was readout from this curve (ECdelta5 mV).
Structure (SMILES),ECdelta5 mV [nM],Threshold Shift [mV]
"Cc1ccc(S(=O)(=O)n2ccc(C(=O)NCc3ccc(F)cn3)c2)cc1 [Compound 13, N-[(5-fluoro-2-pyridyl)methyl]-1-(p-tolylsulfonyl) pyrrole-3-carboxamide]",1700,13
"Cc1ccc(S(=O)(=O)n2ccc(C(=O)NCc3cc(F)ccn3)c2)cc1 [Compound 12, N-[(4-fluoro-2-pyridyl)methyl]-1-(p-tolylsulfonyl) pyrrole-3-carboxamide]",1700,16
"Cc1ccc(S(=O)(=O)n2ccc(C(=O)NCc3cccnc3)c2)cc1 [Compound 14, 1-(p-tolylsulfonyl)-N-(3-pyridylmethyl) pyrrole-3-carboxamide]",1500,23
"Cc1ccc(S(=O)(=O)n2ccc(C(=O)NCc3cc(C)ccn3)c2)cc1 [Compound 16, N-[(4-methyl-2-pyridyl)methyl]-1-(p-tolylsulfonyl)pyrrole-3-carboxamide]",3000,16
"Cc1ccc(S(=O)(=O)n2ccc(C(=O)NCc3cc(C)on3)c2)cc1 [Compound 32, N-[(5-methylisoxazol-3-yl)methyl]-1-(p-tolylsulfonyl) pyrrole-3-carboxamide]",1300,16
"Cc1ccc(S(=O)(=O)n2ccc(C(=O)NCc3ccn(C)n3)c2)cc1 [Compound 36, N-[(1-methylpyrazol-3-yl)methyl]-1-(p-tolylsulfonyl) pyrrole-3-carboxamide]",810,27
"Cc1ccc(S(=O)(=O)n2ccc(C(=O)NCc3cnc4nccn4c3)c2)cc1 [Compound 24, N-(imidazo[1,2-a]pyrimidin-6-ylmethyl)-1-(p-tolylsulfonyl)pyrrole-3-carboxamide]",3200,24
"Cc1cccc(S(=O)(=O)n2ccc(C(=O)NCc3cnc(C)cn3)c2)c1 [Compound 30, N-[(5-methylpyrazin-2-yl)methyl]-1-(m-tolylsulfonyl)pyrrole-3-carboxamide]",2500,17
"Cc1ccc(S(=O)(=O)n2ccc(C(=O)NCc3nc(C)cs3)c2)cc1 [Compound 34, N-[(4-methylthiazol-2-yl)methyl]-1-(p-tolylsulfonyl)pyrrole-3-carboxamide]",1100,18
"Cc1ccc(S(=O)(=O)n2ccc(C(=O)NCc3ncc(C)s3)c2)cc1 [Compound 39, N-[(5-methylthiazol-2-yl)methyl]-1-(p-tolylsulfonyl)pyrrole-3-carboxamide]",1600,17
"Cc1ccc(S(=O)(=O)n2ccc(C(=O)NCc3cnc(C)o3)c2)cc1 [Compound 38, N-[(2-methyloxazol-5-yl)methyl]-1-(p-tolylsulfonyl)pyrrole-3-carboxamide]",4600,13
"Cc1ccc(S(=O)(=O)n2ccc(C(=O)NCc3ncc(C)cn3)c2)cc1 [Compound 1, N-[(5-methylpyrimidin-2-yl)methyl]-1-(p-tolylsulfonyl)pyrrole-3-carboxamide]",1600,27
"Cc1ccc(S(=O)(=O)n2ccc(C(=O)NCc3ccc(C)nn3)c2)cc1 [Compound 3, N-[(6-methylpyridazin-3-yl)methyl]-1-(p-tolylsulfonyl)pyrrole-3-carboxamide]",1100,25

# Now from value to compound:
ECdelta5 mV [nM],Threshold Shift [mV],Structure (SMILES)
2200,22,"Cc1ccc(S(=O)(=O)n2ccc(C(=O)NCc3cncnc3)c2)cc1 [Compound 58, 1-(4-methylbenzene-1-sulfonyl)-N-[(pyrimidin-5-yl)methyl]-1H-pyrrole-3-carboxamide]"
1100,19,"Cc1ccc(S(=O)(=O)n2ccc(C(=S)NCc3cnc(C)cn3)c2)cc1 [Compound 94, 1-(4-methylbenzene-1-sulfonyl)-N-[(5-methylpyrazin-2-yl)methyl]-1H-pyrrole-3-carbothioamide]"
3100,18,"Cc1ccc(CNC(=O)c2ccn(S(=O)(=O)c3ccc(F)cc3)c2)cn1 [Compound 85, 1-(4-fluorobenzene-1-sulfonyl)-N-[(6-methylpyridin-3-yl)methyl]-1H-pyrrole-3-carboxamide]"
2200,23,"COc1ccc(S(=O)(=O)n2ccc(C(=O)NCc3cnccn3)c2)cc1 [Compound 67, 1-(4-methoxybenzene-1-sulfonyl)-N-[(pyrazin-2-yl)methyl]-1H-pyrrole-3-carboxamide]"
2600,25,"Cc1ccc(S(=O)(=O)n2ccc(C(=O)NCc3cc(C)n[nH]3)c2)cc1 [Compound 116, 1-(4-methylbenzene-1-sulfonyl)-N-[(3-methyl-1H-pyrazol-5-yl)methyl]-1H-pyrrole-3-carboxamide]"
710,36,"COc1ccc(S(=O)(=O)n2ccc(C(=O)NCc3cnc(C)cn3)c2)c(C)c1 [Compound 98, 1-(4-methoxy-2-methyl-phenyl)sulfonyl-N-[(5-methylpyrazin-2-yl)methyl]pyrrole-3-carboxamide]"
4300,15,"Cc1cnc(CNC(=O)c2ccn(S(=O)(=O)c3cc(C)c(F)c(C)c3)c2)cn1 [Compound 100, 1-(4-fluoro-3,5-dimethyl-phenyl)sulfonyl-N-[(5-methylpyrazin-2-yl)methyl]pyrrole-3-carboxamide]"
2100,21,"Cc1ccccc1S(=O)(=O)n1ccc(C(=O)NCc2ccn(C)n2)c1 [Compound 74, 1-(2-methylbenzene-1-sulfonyl)-N-[(1-methyl-1H-pyrazol-3-yl)methyl]-1H-pyrrole-3-carboxamide]"
3400,12,"Cc1cnc(CNC(=O)c2ccn(S(=O)(=O)c3ccc(F)c(Cl)c3)c2)cn1 [Compound 92, 1-(3-chloro-4-fluorobenzene-1-sulfonyl)-N-[(5-methylpyrazin-2-yl)methyl]-1H-pyrrole-3-carboxamide]"
3300,13,"Cc1ccc(S(=O)(=O)n2ccc(C(=O)NCc3cnco3)c2)cc1 [Compound 50, 1-(4-methylbenzene-1-sulfonyl)-N-[(1,3-oxazol-5-yl)methyl]-1H-pyrrole-3-carboxamide]"
4600,12,"Cc1cc(CNC(=O)c2ccn(S(=O)(=O)c3ccccc3)c2)on1 [Compound 84, 1-(benzenesulfonyl)-N-[(3-methyl-1,2-oxazol-5-yl)methyl]-1H-pyrrole-3-carboxamide]"
2200,13,"Cn1ccc(CNC(=O)c2ccn(S(=O)(=O)c3ccc(F)cc3)c2)n1 [Compound 63, 1-(4-fluorobenzene-1-sulfonyl)-N-[(1-methyl-1H-pyrazol-3-yl)methyl]-1H-pyrrole-3-carboxamide]"
1500,34,"Cc1cnc(CNC(=O)c2ccn(S(=O)(=O)c3ccc(C(F)F)cc3)c2)cn1 [Compound 93, 1-[4-(difluoromethyl)benzene-1-sulfonyl]-N-[(5-methylpyrazin-2-yl)methyl]-1H-pyrrole-3-carboxamide]"
